Columns and labels:
PTPN2 [1] = target: T1, PTPN2 (Homo sapiens, UniProt P17706); assay: HiBiT PTPN2 degradation in 293T.109 (HiBiT-PTPN2) cells, 24 hours; type: cell-based; conditions: 293T.109 cells
T1 construct: expressed in transfected cells; host or cells: 293T.109 (HiBiT-PTPN2), derived from 293T WT (ATCC)
T1 sequence (P17706 1-415): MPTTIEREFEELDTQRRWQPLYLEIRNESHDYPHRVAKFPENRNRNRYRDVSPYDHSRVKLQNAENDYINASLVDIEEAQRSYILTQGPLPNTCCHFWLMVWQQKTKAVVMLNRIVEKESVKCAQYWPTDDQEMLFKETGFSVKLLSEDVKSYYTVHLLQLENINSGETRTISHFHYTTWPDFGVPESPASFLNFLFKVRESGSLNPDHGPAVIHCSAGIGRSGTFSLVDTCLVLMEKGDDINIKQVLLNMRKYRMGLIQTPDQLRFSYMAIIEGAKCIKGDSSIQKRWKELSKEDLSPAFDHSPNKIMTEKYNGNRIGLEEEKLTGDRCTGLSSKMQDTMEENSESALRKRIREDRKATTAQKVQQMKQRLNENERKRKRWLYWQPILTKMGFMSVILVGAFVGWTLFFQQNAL
Excerpt: Dulbecco's modified Eagle medium (DMEM) without phenol red and fetal bovine serum (FBS) were purchased from Gibco (Grand Island, NY, USA). Nano-Glo® HiBiT Lytic Assay System was purchased from Promega (Medison, WI, USA). 293T. 109 (HiBiT-PTPN2) cell line was generated by ectopically expressing PTPN2 with N-terminal HiBiT fusion tag in 293T WT cell line purchased from ATCC (Manassas, VA, USA). Cell culture flasks and 384-well microplates were acquired from VWR (Radnor, PA, USA).
PTPN2 Degradation Analysis
(§1) PTPN2 degradation was determined based on quantification of luminescent signal using Nano-Glo® HiBiT Lytic Assay kit. Test compounds were added to the 384-well plate from a top concentration of 10 μM with 11 points, half log titration in duplicates. 293T. 109 cells were added into 384-well plates at a cell density of 5000 cells per well. The plates were kept at 37° C. with 5% CO2 for 24 hours. The cells treated in the absence of the test compound were the negative control and the cells without Nano-Glo® HiBiT Lytic reagent were the positive control. After 24-hour incubation, Nano-Glo® HiBiT Lytic Assay reagents were added to the cells. Luminescence was acquired on EnVision™ Multilabel Reader (PerkinElmer, Santa Clara, CA, USA).

PTPN2 [2] = target: T2, PTPN2 (Mus musculus, UniProt Q06180); assay: HiBiT PTPN2 degradation in B16F10.4 cells, 24 hours; type: cell-based
T2 construct: HiBiT; host or cells: B16F10.4
T2 sequence (Q06180 1-406): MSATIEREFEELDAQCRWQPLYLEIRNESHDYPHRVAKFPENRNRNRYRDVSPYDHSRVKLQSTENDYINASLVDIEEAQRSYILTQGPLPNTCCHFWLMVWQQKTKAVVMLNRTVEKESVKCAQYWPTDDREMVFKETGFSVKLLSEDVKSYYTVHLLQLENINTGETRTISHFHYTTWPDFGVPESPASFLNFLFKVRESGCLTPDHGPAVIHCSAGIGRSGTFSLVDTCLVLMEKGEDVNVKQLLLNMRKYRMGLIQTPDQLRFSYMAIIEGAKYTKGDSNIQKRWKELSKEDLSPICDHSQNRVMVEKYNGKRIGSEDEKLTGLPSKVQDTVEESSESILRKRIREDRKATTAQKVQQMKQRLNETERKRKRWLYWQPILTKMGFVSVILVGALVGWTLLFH
Protocol: as §1

SMILES	DC50 (PTPN2 [1]) [nM]	DC50 (PTPN2 [2]) [nM]
Cn1c(=O)n(C2CCC(=O)NC2=O)c2ccc(-c3ccc(CC(=O)Nc4ccc5c(F)c(N6CC(=O)NS6(=O)=O)c(O)cc5c4)cc3)c(F)c21 (centres unmarked) [Degrader 40]	150 to 500	150 to 500
Cn1nc(C2CCC(=O)NC2=O)c2ccc(Nc3ccc(CC(=O)Nc4ccc5c(F)c(N6CC(=O)NS6(=O)=O)c(O)cc5c4)cc3F)cc21 (centres unmarked) [Degrader 41]	< 50	50 to 150
Cn1c(=O)n(C2CCC(=O)NC2=O)c2cc(F)c(N3CCC(CC(=O)Nc4ccc5c(F)c(N6CC(=O)NS6(=O)=O)c(O)cc5c4)CC3)cc21 (centres unmarked) [Degrader 43]	< 50	150 to 500
Cn1c(=O)n(C2CCC(=O)NC2=O)c2ccc(N3CCC(CC(=O)Nc4ccc5c(F)c(N6CC(=O)NS6(=O)=O)c(O)cc5c4)CC3)c(F)c21 (centres unmarked) [Degrader 46]	50 to 150	150 to 500
CCn1c(=O)n(C2CCC(=O)NC2=O)c2ccc(-c3ccc(CC(=O)Nc4ccc5c(F)c(N6CC(=O)NS6(=O)=O)c(O)cc5c4)cc3)cc21 (centres unmarked) [Degrader 49]	50 to 150	50 to 150
Cn1c(=O)n(C2CCC(=O)NC2=O)c2ccc(C3CC4CCC(C3)N4CC(=O)Nc3ccc4c(F)c(N5CC(=O)NS5(=O)=O)c(O)cc4c3)cc21 (centres unmarked) [Degrader 50]	50 to 150	150 to 500
Cn1c(=O)n(C2CCC(=O)NC2=O)c2ccc(C3CC4CCC(C3)N4CC(=O)Nc3ccc4c(F)c(N5CC(=O)NS5(=O)=O)c(O)cc4c3)cc21 (centres unmarked) [Degrader 51]	50 to 150	150 to 500
Cn1c(=O)n(C2CCC(=O)NC2=O)c2ccc(C3CCN(CCNC(=O)Nc4ccc5c(F)c(N6CC(=O)NS6(=O)=O)c(O)cc5c4)CC3)cc21 (centres unmarked) [Degrader 52]	< 50	50 to 150
O=C(CCC(=O)Nc1ccc2c(F)c(N3CC(=O)NS3(=O)=O)c(O)cc2c1)NCc1ccc2c3c(cccc13)C(=O)N2C1CCC(=O)NC1=O (centres unmarked) [Degrader 54]	150 to 500	≥ 500
Cn1c(=O)n(C2CCC(=O)NC2=O)c2ccc(C3CCN(CCNC(=O)c4ccc5c(F)c(N6CC(=O)NS6(=O)=O)c(O)cc5c4)CC3(F)F)cc21 (centres unmarked) [Degrader 59]	150 to 500	50 to 150
Cn1c(=O)n(C2CCC(=O)NC2=O)c2ccc(-c3ccc(CC(=O)Nc4ccc5c(F)c(N6CC(=O)NS6(=O)=O)c(O)cc5c4)cc3)nc21 (centres unmarked) [Degrader 60]	150 to 500	50 to 150
Cn1c(=O)n(C2CCC(=O)NC2=O)c2cccc(N3CCC(CCNC(=O)Nc4ccc5c(F)c(N6CC(=O)NS6(=O)=O)c(O)cc5c4)CC3)c21 (centres unmarked) [Degrader 62]	150 to 500	150 to 500
CCn1c(=O)n(C2CCC(=O)NC2=O)c2ccc(C3CCN([C@H](CO)C(=O)Nc4ccc5c(F)c(N6CC(=O)NS6(=O)=O)c(O)cc5c4)CC3)cc21 (some centres unmarked) [Degrader 63]	< 50	< 50
CCn1c(=O)n(C2CCC(=O)NC2=O)c2ccc(C3CCN([C@@H](CO)C(=O)Nc4ccc5c(F)c(N6CC(=O)NS6(=O)=O)c(O)cc5c4)CC3)cc21 (some centres unmarked) [Degrader 64]	< 50	50 to 150
C[C@H]1CN(CC(=O)Nc2ccc3c(F)c(N4CC(=O)NS4(=O)=O)c(O)cc3c2)CCN1c1cc2c(cc1F)n(C1CCC(=O)NC1=O)c(=O)n2C (some centres unmarked) [Degrader 65]	150 to 500	≥ 500
Cn1c(=O)n(C2CCC(=O)NC2=O)c2ccc(N3CCC(CC4CC4C(=O)Nc4ccc5c(F)c(N6CC(=O)NS6(=O)=O)c(O)cc5c4)CC3)cc21 (centres unmarked) [Degrader 68]	50 to 150	50 to 150
Cn1c(=O)n(C2CCC(=O)NC2=O)c2ccc(Nc3ccc(CC(=O)Nc4ccc5c(F)c(N6CC(=O)NS6(=O)=O)c(O)cc5c4)cc3F)cc21 (centres unmarked) [Degrader 71]	50 to 150	50 to 150
Cn1c(=O)n(C2CCC(=O)NC2=O)c2ccc(Nc3cccc(CC(=O)Nc4ccc5c(F)c(N6CC(=O)NS6(=O)=O)c(O)cc5c4)c3)cc21 (centres unmarked) [Degrader 72]	< 50	50 to 150
Cn1c(=O)n(C2CCC(=O)NC2=O)c2ccc(-c3ccc(NC(=O)Nc4ccc5c(F)c(N6CC(=O)NS6(=O)=O)c(O)cc5c4)cc3)cc21 (centres unmarked) [Degrader 73]	50 to 150	50 to 150
Cn1c(=O)n(C2CCC(=O)NC2=O)c2cc(F)c(N3CCC(O)(CC(=O)Nc4ccc5c(F)c(N6CC(=O)NS6(=O)=O)c(O)cc5c4)CC3)cc21 (centres unmarked) [Degrader 74]	< 50	150 to 500

Now from value to molecule:

DC50 (PTPN2 [1]) [nM]	DC50 (PTPN2 [2]) [nM]	SMILES
50 to 150	50 to 150	Cn1c(=O)n(C2CCC(=O)NC2=O)c2ccc(Nc3cnn(CC(=O)Nc4ccc5c(F)c(N6CC(=O)NS6(=O)=O)c(O)cc5c4)c3)cc21 (centres unmarked) [Degrader 42]
150 to 500	150 to 500	Cn1c(=O)n(C2CCC(=O)NC2=O)c2cc(F)c(-c3ccc(CC(=O)Nc4ccc5c(F)c(N6CC(=O)NS6(=O)=O)c(O)cc5c4)cc3)cc21 (centres unmarked) [Degrader 44]
150 to 500	150 to 500	COCCn1c(=O)n(C2CCC(=O)NC2=O)c2ccc(-c3ccc(CC(=O)Nc4ccc5c(F)c(N6CC(=O)NS6(=O)=O)c(O)cc5c4)cc3)cc21 (centres unmarked) [Degrader 45]
50 to 150	< 50	CCn1c(=O)n(C2CCC(=O)NC2=O)c2ccc(-c3ccc(CC(=O)Nc4ccc5c(F)c(N6CC(=O)NS6(=O)=O)c(O)cc5c4)cc3F)cc21 (centres unmarked) [Degrader 47]
50 to 150	50 to 150	Cn1nc(C2CCC(=O)NC2=O)c2ccc(Nc3ccc(CC(=O)Nc4ccc5c(F)c(N6CC(=O)NS6(=O)=O)c(O)cc5c4)cc3)cc21 (centres unmarked) [Degrader 48]
< 50	< 50	O=C1CCC(N2C(=O)c3cccc4c(N5CCC(CCNC(=O)Nc6ccc7c(F)c(N8CC(=O)NS8(=O)=O)c(O)cc7c6)CC5)ccc2c34)C(=O)N1 (centres unmarked) [Degrader 53]
50 to 150	150 to 500	Cn1c(=O)n(C2CCC(=O)NC2=O)c2cc(F)c(N3CCN(CC(=O)Nc4ccc5c(F)c(N6CC(=O)NS6(=O)=O)c(O)cc5c4)CC3)cc21 (centres unmarked) [Degrader 55]
150 to 500	50 to 150	Cn1c(=O)n(C2CCC(=O)NC2=O)c2ccc(-c3ccc(CC(=O)Nc4ccc5c(F)c(N6CC(=O)NS6(=O)=O)c(O)cc5c4)cc3F)c(F)c21 (centres unmarked) [Degrader 56]
50 to 150	150 to 500	Cn1c(=O)n(C2CCC(=O)NC2=O)c2ccc(N3CCN(CC(=O)Nc4ccc5c(F)c(N6CC(=O)NS6(=O)=O)c(O)cc5c4)CC3)c(F)c21 (centres unmarked) [Degrader 57]
< 50	150 to 500	Cn1c(=O)n(C2CCC(=O)NC2=O)c2cc(F)c(N3CCC(CCNC(=O)Nc4ccc5c(F)c(N6CC(=O)NS6(=O)=O)c(O)cc5c4)CC3)cc21 (centres unmarked) [Degrader 58]
150 to 500	150 to 500	Cn1nc(C2CCC(=O)NC2=O)c2ccc(C3CCN(CCNC(=O)c4ccc5c(F)c(N6CC(=O)NS6(=O)=O)c(O)cc5c4)CC3(F)F)cc21 (centres unmarked) [Degrader 61]
150 to 500	≥ 500	C[C@H]1CN(CC(=O)Nc2ccc3c(F)c(N4CC(=O)NS4(=O)=O)c(O)cc3c2)CCN1c1ccc2c(c1F)n(C)c(=O)n2C1CCC(=O)NC1=O (some centres unmarked) [Degrader 66]
150 to 500	150 to 500	Cn1c(=O)n(C2CCC(=O)NC2=O)c2ccc(N3CCC(O)(CC(=O)N4CC(Oc5ccc6cc(O)c(N7CC(=O)NS7(=O)=O)c(F)c6c5)C4)CC3)cc21 (centres unmarked) [Degrader 67]
150 to 500	150 to 500	COc1cc(CC(=O)Nc2ccc3c(F)c(N4CC(=O)NS4(=O)=O)c(O)cc3c2)ccc1-c1ccc2c(c1)n(C)c(=O)n2C1CCC(=O)NC1=O (centres unmarked) [Degrader 69]
< 50	< 50	Cc1nn(CC(=O)Nc2ccc3c(F)c(N4CC(=O)NS4(=O)=O)c(O)cc3c2)c(C)c1-c1ccc2c(c1)n(C)c(=O)n2C1CCC(=O)NC1=O (centres unmarked) [Degrader 70]
≥ 500	≥ 500	Cn1c(=O)n(C2CCC(=O)NC2=O)c2ccc3c(c21)CCCN3C1CCN(CC(=O)Nc2ccc3c(F)c(N4CC(=O)NS4(=O)=O)c(O)cc3c2)CC1 (centres unmarked) [Degrader 75]
50 to 150	50 to 150	Cn1c(=O)n(C2CCC(=O)NC2=O)c2ccc(Oc3ccc(CC(=O)Nc4ccc5c(F)c(N6CC(=O)NS6(=O)=O)c(O)cc5c4)cc3)cc21 (centres unmarked) [Degrader 76]

Reference: patent US20240424111A1, “Degrader Compounds and Uses Thereof” (CALICO LIFE SCIENCES LLC, priority 2021, published 2024)
